Patent US20120309750A1, “5-MEMBERED HETEROCYCLE DERIVATIVES AND MANUFACTURING PROCESS THEREOF” (ILDONG PHARM CO., LTD., priority 2010, published 2012)

Experiments:
yeast HSP90 = yeast HSP90 (Saccharomyces cerevisiae, UniProt P02829); assay: Hsp90 ATPase assay (malachite green); type: biochemical
Procedure: (§1) For present invention, the ATPase activity of yeast HSP90 was measured using malachite green assay. Formula I compounds for primary antitumoral activity were treated in human colorectal cancer cells (HCT116) showing increased expression levels of HSP90 client protein and cotoxicity IC50 values was measured as a result.

[1] = system: human colorectal cancer cells (HCT116); assay: Growth inhibition assay (cytotoxicity) in HCT116; type: cell-based; conditions: HCT-116
Procedure: as §1

yeast HSP90, sequence (P02829 whole entry): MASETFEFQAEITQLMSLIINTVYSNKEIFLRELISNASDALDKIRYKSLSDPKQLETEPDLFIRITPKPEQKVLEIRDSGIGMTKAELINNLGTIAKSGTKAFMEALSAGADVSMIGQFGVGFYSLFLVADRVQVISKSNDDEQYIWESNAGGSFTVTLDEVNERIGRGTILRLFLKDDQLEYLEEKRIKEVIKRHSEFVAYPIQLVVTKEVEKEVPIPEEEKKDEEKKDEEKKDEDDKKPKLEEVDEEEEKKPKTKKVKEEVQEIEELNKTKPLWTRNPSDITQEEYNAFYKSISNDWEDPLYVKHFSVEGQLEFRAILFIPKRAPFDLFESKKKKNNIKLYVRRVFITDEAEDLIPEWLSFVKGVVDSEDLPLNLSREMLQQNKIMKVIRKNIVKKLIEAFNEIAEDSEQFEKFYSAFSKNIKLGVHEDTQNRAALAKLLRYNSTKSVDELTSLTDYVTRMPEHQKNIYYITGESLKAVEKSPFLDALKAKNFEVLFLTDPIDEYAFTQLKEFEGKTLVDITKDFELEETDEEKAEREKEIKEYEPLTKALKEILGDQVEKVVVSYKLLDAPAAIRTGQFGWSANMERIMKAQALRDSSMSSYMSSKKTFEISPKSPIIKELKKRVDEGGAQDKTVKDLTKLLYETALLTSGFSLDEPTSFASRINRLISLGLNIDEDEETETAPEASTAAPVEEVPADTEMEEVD

Structure (SMILES)	IC50 (yeast HSP90)	IC50 [1]
CCNC(=O)c1noc(-c2cc(C(C)C)c(O)cc2O)c1-c1noc(-c2cccs2)n1 [Compound I-77, 5-(2,4-Dihydroxy-5-isopropylphenyl)-N-ethyl-4-(5-(thiophen-2-yl)-1,2,4-oxadiazol-3-yl)isoxazole-3-carboxamide]	500 to 1000 nM	< 500 nM
CCNC(=O)c1noc(-c2cc(C(C)C)c(O)cc2O)c1-c1noc(NC)n1 [Compound I-79, 5-(2,4-Dihydroxy-5-isopropylphenyl)-N-ethyl-4-(5-(methylamino)-1,2,4-oxadiazol-3-yl)isoxazole-3-carboxamide]	500 to 1000 nM	< 500 nM
CCNC(=O)c1noc(-c2cc(C(C)C)c(O)cc2O)c1-c1noc(O)n1 [Compound I-80, 5-(2,4-Dihydroxy-5-isopropylphenyl)-N-ethyl-4-(5-hydroxy-1,2,4-oxadiazol-3-yl)isoxazole-3-carboxamide]	> 1000 nM	> 1000 nM
CCNC(=O)c1noc(-c2cc(C(C)C)c(O)cc2O)c1-c1noc(CO)n1 [Compound I-81, 5-(2,4-Dihydroxy-5-isopropylphenyl)-N-ethyl-4-(5-(hydroxymethyl)-1,2,4-oxadiazol-3-yl)isoxazole-3-carboxamide]	500 to 1000 nM	< 500 nM
CCNC(=O)c1noc(-c2cc(C(C)C)c(O)cc2O)c1-c1noc(S)n1 [Compound I-82, 5-(2,4-Dihydroxy-5-isopropylphenyl)-N-ethyl-4-(5-mercapto-1,2,4-oxadiazol-3-yl)isoxazole-3-carboxamide]	500 to 1000 nM	500 to 1000 nM
CCNC(=O)c1noc(-c2cc(C(C)C)c(O)cc2O)c1-c1noc([C@H](C)O)n1 [Compound I-83, (S)-5-(2,4-Dihydroxy-5-isopropylphenyl)-N-ethyl-4-(5-(1-hydroxyethyl)-1,2,4-oxadiazol-3-yl)isoxazole-3-carboxamide]	500 to 1000 nM	< 500 nM
CCNC(=O)c1noc(-c2cc(C(C)C)c(O)cc2O)c1-c1noc(-c2ccc(OC)cc2)n1 [Compound I-84, 5-(2,4-Dihydroxy-5-isopropylphenyl)-N-ethyl-4-(5-(4-methoxyphenyl)-1,2,4-oxadiazol-3-yl)isoxazole-3-carboxamide]	500 to 1000 nM	500 to 1000 nM
CCNC(=O)c1noc(-c2cc(C(C)C)c(O)cc2O)c1-c1noc(OC)n1 [Compound I-86, 5-(2,4-Dihydroxy-5-isopropylphenyl)-N-ethyl-4-(5-methoxy-1,2,4-oxadiazol-3-yl)isoxazole-3-carboxamide]	500 to 1000 nM	< 500 nM
CCNC(=O)c1noc(-c2cc(C(C)C)c(O)cc2O)c1-c1noc(C2CCCCC2)n1 [Compound I-89, 4-(5-Cyclohexyl-1,2,4-oxadiazol-3-yl)-5-(2,4-dihydroxy-5-isopropylphenyl)-N-ethylisoxazole-3-carboxamide]	500 to 1000 nM	< 500 nM
CCNC(=O)c1noc(-c2cc(C(C)C)c(O)cc2O)c1-c1noc(-c2ccc(OCC)cc2)n1 [Compound I-90, 5-(2,4-Dihydroxy-5-isopropylphenyl)-4-(5-(4-ethoxyphenyl)-1,2,4-oxadiazol-3-yl)-N-ethylisoxazole-3-carboxamide]	500 to 1000 nM	> 1000 nM
CCNC(=O)c1noc(-c2cc(C(C)C)c(O)cc2O)c1-c1noc(C(O)CCl)n1 (centres unmarked) [Compound I-91, 4-(5-(2-Chloro-1-hydroxyethyl)-1,2,4-oxadiazol-3-yl)-5-(2,4-dihydroxy-5-isopropylphenyl)-N-ethylisoxazole-3-carboxamide]	500 to 1000 nM	< 500 nM
CCNC(=O)c1noc(-c2cc(C(C)C)c(O)cc2O)c1-c1noc(CN2CCOCC2)n1 [Compound I-92, 5-(2,4-Dihydroxy-5-isopropylphenyl)-N-ethyl-4-(5-(morpholinomethyl)-1,2,4-oxadiazol-3-yl)isoxazole-3-carboxamide]	500 to 1000 nM	< 500 nM
CCNC(=O)c1noc(-c2cc(C(C)C)c(O)cc2O)c1-c1noc(CN(C)C)n1 [Compound I-93, 5-(2,4-Dihydroxy-5-isopropylphenyl)-4-(5-((dimethylamino)methyl)-1,2,4-oxadiazol-3-yl)-N-ethylisoxazole-3-carboxamide]	500 to 1000 nM	< 500 nM
CCNC(=O)c1noc(-c2cc(C(C)C)c(O)cc2O)c1-c1noc(CN2CCCC2)n1 [Compound I-95, 5-(2,4-Dihydroxy-5-isopropylphenyl)-N-ethyl-4-(5-(pyrrolidin-1-ylmethyl)-1,2,4-oxadiazol-3-yl)isoxazole-3-carboxamide]	500 to 1000 nM	< 500 nM
CCNC(=O)c1noc(-c2cc(C(C)C)c(O)cc2O)c1-c1cc[nH]n1 [Compound I-96, 5-(2,4-Dihydroxy-5-isopropylphenyl)-N-ethyl-4-(1H-pyrazol-3-yl)isoxazole-3-carboxamide]	500 to 1000 nM	< 500 nM
CCNC(=O)c1noc(-c2cc(C(C)C)c(O)cc2O)c1-c1ccn(C)n1 [Compound I-97, 5-(2,4-Dihydroxy-5-isopropylphenyl)-N-ethyl-4-(1-methyl-1H-pyrazol-3-yl)isoxazole-3-carboxamide]	500 to 1000 nM	< 500 nM
CCNC(=O)c1noc(-c2cc(C(C)C)c(O)cc2O)c1-c1ccn(CC)n1 [Compound I-99, 5-(2,4-Dihydroxy-5-isopropylphenyl)-N-ethyl-4-(1-ethyl-1H-pyrazol-3-yl)isoxazole-3-carboxamide]	500 to 1000 nM	< 500 nM
CCNC(=O)c1noc(-c2cc(C(C)C)c(O)cc2O)c1-c1ccn(C(C)C)n1 [Compound I-100, 5-(2,4-Dihydroxy-5-isopropylphenyl)-N-ethyl-4-(1-isopropyl-1H-pyrazol-3-yl)isoxazole-3-carboxamide]	500 to 1000 nM	< 500 nM
CCCn1ccc(-c2c(C(=O)NCC)noc2-c2cc(C(C)C)c(O)cc2O)n1 [Compound I-101, 5-(2,4-Dihydroxy-5-isopropylphenyl)-N-ethyl-4-(1-propyl-1H-pyrazol-3-yl)isoxazole-3-carboxamide]	500 to 1000 nM	< 500 nM

Second part, led by results:

IC50 (yeast HSP90)	Structure (SMILES)	IC50 [1]
< 500 nM	CCNC(=O)c1noc(-c2cc(C(C)C)c(O)cc2O)c1-c1noc(N2CCCCC2)n1 [Compound I-71, 5-(2,4-Dihydroxy-5-isopropylphenyl)-N-ethyl-4-(5-(piperidin-1-yl)-1,2,4-oxadiazol-3-yl)isoxazole-3-carboxamide]	< 500 nM
< 500 nM	CCNC(=O)c1noc(-c2cc(C(C)C)c(O)cc2O)c1-c1noc(N(C)C)n1 [Compound I-72, 5-(2,4-Dihydroxy-5-isopropylphenyl)-4-(5-(dimethylamino)-1,2,4-oxadiazol-3-yl)-N-ethylisoxazole-3-carboxamide]	< 500 nM
500 to 1000 nM	CCNC(=O)c1noc(-c2cc(C(C)C)c(O)cc2O)c1-c1noc(N2CCOCC2)n1 [Compound I-73, 5-(2,4-Dihydroxy-5-isopropylphenyl)-N-ethyl-4-(5-morpholino-1,2,4-oxadiazol-3-yl)isoxazole-3-carboxamide]	< 500 nM
500 to 1000 nM	CCNC(=O)c1noc(-c2cc(C(C)C)c(O)cc2O)c1-c1noc(C(=O)N(CC)CC)n1 [Compound I-74, 3-(5-(2,4-Dihydroxy-5-isopropylphenyl)-3-(ethylcarbamoyl)isoxazol-4-yl)-N,N-diethyl-1,2,4-oxadiazole-5-carboxamide]	500 to 1000 nM
< 500 nM	CCNC(=O)c1noc(-c2cc(C(C)C)c(O)cc2O)c1-c1noc(COC)n1 [Compound I-75, 5-(2,4-Dihydroxy-5-isopropylphenyl)-N-ethyl-4-(5-(methoxymethyl)-1,2,4-oxadiazol-3-yl)isoxazole-3-carboxamide]	< 500 nM
< 500 nM	CCNC(=O)c1noc(-c2cc(C(C)C)c(O)cc2O)c1-c1noc(N(CC)CC)n1 [Compound I-76, 4-(5-(Diethylamino)-1,2,4-oxadiazol-3-yl)-5-(2,4-dihydroxy-5-isopropylphenyl)-N-ethylisoxazole-3-carboxamide]	< 500 nM
< 500 nM	CCNC(=O)c1noc(-c2cc(C(C)C)c(O)cc2O)c1-c1noc(N)n1 [Compound I-78, 4-(5-Amino-1,2,4-oxadiazol-3-yl)-5-(2,4-dihydroxy-5-isopropylphenyl)-N-ethylisoxazole-3-carboxamide]	< 500 nM
< 500 nM	CCNC(=O)c1noc(-c2cc(C(C)C)c(O)cc2O)c1-c1noc(-c2ccc([N+](=O)[O-])cc2)n1 [Compound I-85, 5-(2,4-Dihydroxy-5-isopropylphenyl)-N-ethyl-4-(5-(4-nitrophenyl)-1,2,4-oxadiazol-3-yl)isoxazole-3-carboxamide]	< 500 nM
< 500 nM	CCNC(=O)c1noc(-c2cc(C(C)C)c(O)cc2O)c1-c1noc(SC)n1 [Compound I-87, 5-(2,4-Dihydroxy-5-isopropylphenyl)-N-ethyl-4-(5-(methylthio)-1,2,4-oxadiazol-3-yl)isoxazole-3-carboxamide]	500 to 1000 nM
< 500 nM	CCNC(=O)c1noc(-c2cc(C(C)C)c(O)cc2O)c1-c1noc(C2CCCC2)n1 [Compound I-88, 4-(5-Cyclopentyl-1,2,4-oxadiazol-3-yl)-5-(2,4-dihydroxy-5-isopropylphenyl)-N-ethylisoxazole-3-carboxamide]	< 500 nM
< 500 nM	CCNC(=O)c1noc(-c2cc(C(C)C)c(O)cc2O)c1-c1noc(CN2CCCCC2)n1 [Compound I-94, 5-(2,4-Dihydroxy-5-isopropylphenyl)-N-ethyl-4-(5-(piperidin-1-ylmethyl)-1,2,4-oxadiazol-3-yl)isoxazole-3-carboxamide]	< 500 nM
< 500 nM	CCNC(=O)c1noc(-c2cc(C(C)C)c(O)cc2O)c1-c1ccnn1C [Compound I-98, 5-(2,4-Dihydroxy-5-isopropylphenyl)-N-ethyl-4-(1-methyl-1H-pyrazol-5-yl)isoxazole-3-carboxamide]	< 500 nM
